Assay: RP, Agilent ZORBAX Eclipse Plus C18, 150 × 2.1 mm, 3.5 µm, 40 °C, 0.3 mL/min, estimated dead time 1.1 min; A: water + 0.1% formic acid; B: acetonitrile + 0.1% formic acid; gradient (min/%B) 0/2 1/2 2/20 16.5/98 22/98
Details: stereoisomer not certain

LC retention time [min] | SMILES
2.11 | Cc1ncc(CO)c(CO)c1O
9.73 | c1ccc(COCCC[P+](c2ccccc2)(c2ccccc2)c2ccccc2)cc1
10.5 | COc1ccc2c(c1)CCC1C2CCC2(C)C(=O)CCC12 (configuration not stated)
6.88 | CC(C)NCC(O)COc1cccc2[nH]c3ccccc3c12 (configuration not stated)
4.91 | CNNCc1ccc(C(=O)NC(C)C)cc1
7.59 | COC(=O)c1ccc(O)cc1
5.77 | Cc1ccnc(NS(=O)(=O)c2ccc(N)cc2)n1
5.46 | CN1CCN2c3ncccc3Cc3ccccc3C2C1 (configuration not stated)
13.7 | N#CC(C(=O)O)=C(c1ccccc1)c1ccccc1
9.54 | CCOC(=O)NS(=O)(=O)c1ccc(C)cc1
7.45 | CN(C)CCC=C1c2ccccc2COc2ccccc21
10.6 | CCOc1ccc2ccccc2c1C(=O)NC1C(=O)N2C1SC(C)(C)C2C(=O)O (configuration not stated)
10.2 | CCCCCCCCc1ccc(CCC(N)(CO)CO)cc1
5.75 | COc1ccc2nc(SCc3ncc(C(=O)O)c(OC)c3C)[nH]c2c1
5.88 | c1ccc2n[nH]nc2c1
10.3 | O=C(NCc1ccccc1)NC1CCCCC1
9.91 | CCOCCOC(=O)Nc1ccc(C)c(NC(=O)OCCOCC)c1
10.8 | O=C(C1CCCCC1)N1CC(=O)N2CCc3ccccc3C2C1 (configuration not stated)
13.6 | CCOC(=O)C(C#N)=C(c1ccccc1)c1ccccc1
7.72 | CN(C)CCOC(c1ccccc1)c1ccccc1
4.8 | COCCOC(=O)Nc1cccc(N)c1
5.86 | COc1cc(C(=O)c2cnc(N)nc2N)cc(OC)c1OC
12.5 | CC1=CC(C)(C)Nc2ccccc21
6.58 | COC(=O)Nc1nc2ccc(S(=O)c3ccccc3)cc2[nH]1 (configuration not stated)
9.08 | c1ccc2sc(NC3CCCCC3)nc2c1

LC retention time [min] | SMILES
12.1 | COc1ccccc1Oc1c(NS(=O)(=O)c2ccc(C(C)(C)C)cc2)nc(-c2ncccn2)nc1OCCO
8.82 | O=C(O)c1cccc2c(=O)c3ccccc3[nH]c12
6.13 | C[N+](C)(Cc1ccccc1)Cc1ccccc1
10.1 | COc1ccc(OC)cc1
8.25 | CCc1cccc(C)c1N(C(=O)CS(=O)(=O)O)C(C)COC (configuration not stated)
5.64 | NC(=O)c1ccccc1
5.51 | CC(C)(C)NCC(O)COc1nsnc1N1CCOCC1 (configuration not stated)
7.36 | CC(C)NCC(O)COc1cccc2ccccc12 (configuration not stated)
6.5 | O=S(=O)(O)c1nc2ccccc2s1
6.12 | Cc1nnc(-c2ccccc2)c(=O)[nH]1
7.79 | c1ccc([P+](c2ccccc2)(c2ccccc2)C2CC2)cc1
7.5 | COC[P+](c1ccccc1)(c1ccccc1)c1ccccc1
5.2 | c1ccc2[nH]c(-c3cscn3)nc2c1
13.1 | COCC(=O)Nc1cc(Sc2ccccc2)ccc1N=C(NC(=O)OC)NC(=O)OC
8.64 | CCC(C)C(=O)OC1CC(O)C=C2C=CC(C)C(CCC(O)CC(O)CC(=O)O)C21 (configuration not stated)
8.21 | COCC(C)N(C(=O)C(=O)O)c1c(C)csc1C (configuration not stated)
8.85 | CCCC[P+](c1ccccc1)(c1ccccc1)c1ccccc1
10.4 | CCCCCCCCCC[N+](C)(C)Cc1ccccc1
7.37 | COc1ccccc1NC(C)=O
4.35 | c1ccc(C2=NCCN2)cc1
8.07 | C[N+](C)([O-])CCOC(c1ccccc1)c1ccccc1
5.66 | CNCC(c1ccc(O)cc1)C1(O)CCCCC1 (configuration not stated)
11.6 | O=P(Cc1ccccc1)(Cc1ccccc1)Cc1ccccc1
8.32 | NC(=O)N1c2ccccc2CC(=O)c2ccccc21
15.2 | Cc1ccc(O)c(-n2nc3ccccc3n2)c1

The next lines start with the molecule.

SMILES | LC retention time [min]
CC1(C)CC(N(C=O)CCCCCCN(C=O)C2CC(C)(C)NC(C)(C)C2)CC(C)(C)N1 | 4.67
CN(C)c1nc2c(ncn2C2OC(CO)C(O)C2O)c(=O)[nH]1 (configuration not stated) | 4.57
CC1(C)CCCC(C)(C)N1O | 10.4
CC(C)c1ccc(NC(=O)N(C)C)cc1 | 10.3
CN1C2CCC1C(C(=O)O)C(OC(=O)c1ccccc1)C2 (configuration not stated) | 5.64
CCN1CCN(C(=O)NC(C(=O)NC2C(=O)N3C(C(=O)O)=C(CSc4nnnn4C)CSC23)c2ccc(O)cc2)C(=O)C1=O (configuration not stated) | 6.86
Nc1nc(=S)c2[nH]cnc2[nH]1 | 2.69
Cc1cc(C2CCCCC2)n(O)c(=O)c1 | 4.49
CC12CCC3c4cc(O)c(O)cc4CCC3C1CCC2=O (configuration not stated) | 9.98
CCCCCCCCCCCCCCCCCCCC[N+](C)(C)C | 15.7
CSc1nc(N)nc2nc[nH]c12 | 4.91
Cn1cnc2c(=O)[nH]c(=O)[nH]c21 | 2.38
Cc1ccc(OP(=O)(Oc2ccc(C)cc2)Oc2ccc(C)cc2)cc1 | 15.9
CCOC(=O)CC(SP(=S)(OC)OC)C(=O)OCC (configuration not stated) | 12.9
CC1(C)NC(=O)NC1=O | 3.47
C[N+](C)(C)Cc1ccccc1 | 4.46
C=Cc1ccc(C[N+](C)(C)C)cc1 | 5.4
O=c1[nH]c(=O)c2[nH]cnc2[nH]1 | 2.43
COCCOCCOCCOCCOC | 6.01

SMILES | LC retention time [min]
O=C(O)CCCCC(=O)O | 5.22
O=S(=O)(O)NC1CCCCC1 | 5.07
O=c1[nH]cnc2c1ncn2C1CC(O)C(CO)O1 (configuration not stated) | 4.18
Cc1cc(C)c(C(=O)P(=O)(c2ccccc2)c2ccccc2)c(C)c1 | 14.1
OC(c1ccccc1)(c1ccccc1)C1CCNCC1 | 6.64
CCCCCCCCCCCCCC[N+](C)(C)C | 11.5
Cc1nnc(-c2ccccc2)c(=O)n1N | 6.78
CC(CC(C)(C)C)CP(=O)(O)CC(C)CC(C)(C)C (configuration not stated) | 14.4
Nc1ncnc2c1ncn2C1CC(O)C(COP(=O)(O)O)O1 (configuration not stated) | 2.17
CC(C)c1ccccc1OP(=O)(Oc1ccccc1)Oc1ccccc1C(C)C | 17.4
O=[P+](c1ccccc1)c1ccccc1 | 8.03
CCCC(=NOCC)C1=C(O)CC(CC(C)SCC)CC1=O (configuration not stated) | 16.1
CCCC1CC(C(=O)NC(C(C)O)C2OC(SC)C(O)C(O)C2O)N(C)C1 (configuration not stated) | 4.88
COc1ccc2c3c1OC1C(=O)C=CC4C(C2)N(C)CCC314 (configuration not stated) | 5.06
COC(=O)c1ccc(CNS(C)(=O)=O)cc1S(=O)(=O)NC(=O)Nc1nc(OC)cc(OC)n1 | 10
CC12C=CC(=O)C=C1CCC1C2C(=O)CC2(C)C1CCC2(O)C(=O)CO (configuration not stated) | 8.47
Cn1c(=O)c2c(ncn2C)n(C)c1=O | 5.51
COc1ccc2c3c1OC1C(OC(C)=O)C=CC4C(C2)N(C)CCC341 (configuration not stated) | 6.21

From the RepoRT retention time repository (doi:10.1016/j.chroma.2015.11.014)
